US10857167B2, “Use of oligosaccharide compositions to enhance weight gain” (Children's Hospital Medical Center, priority 2015, dated 2020)

Tested on: distal small bowel gene expression
Experiment: RNA sequencing / transcriptional analysis of small bowel 56 days after ICR (2′-FL signature response)
Assay type: in vivo, mouse
From the text: Luminal small bowel contents were expressed into AllProtect Tissue Reagent (Qiagen Inc, CA). Bacterial DNA was extracted using the AllPrep DNA/RNA Mini Kit (Qiagen Inc, CA), according to kit instructions and prior to sequencing (described below). Small bowel tissue samples for RNA were placed into RNA Later (Life Technologies, NY). RNA extraction was accomplished following Qiagen RNeasy Plus Kit instruction (Qiagen Inc, CA). All nucleic acid samples were then stored at -80 Celsius until sequenced (described below). Transcriptional analysis was carried out on resected and harvested small bowel samples obtained from operated mice taken to 8 weeks. Murine RNA sequencing libraries were prepared from approximately 1.5 μg RNA using the TruSeq RNA Sample Preparation Kit (Illumina, Calif.) and sequenced using the HiSeq 2000 Sequencing System (Illumina, Calif.) with single-end 50 bp reads. Following removal of primers and barcodes, sequences were aligned to the mm10 genome using reference annotations from UCSC (Rosenbloom et al. (2015) Nucleic acids research 43: […]-681) (n=36,186 entities). Aligned reads were quantified and used to compute reads per kilobase per million mapped reads (RPKM); raw counts were then normalized using the DESeq algorithm and each harvested sample was baselined to its own resected sample. A filter was applied to the data, requiring at least three reads in all samples of at least one of the four experimental conditions (n=14,489 entities). The data discussed in this publication have been deposited in NCBI's Gene Expression Omnibus and are accessible through NCBI Gene Expression Omnibus (GEO) Series accession number GSE72590. Edgar et al. (2002) Nucleic acids research 30: 207-210. In order to characterize the impact of 2'-FL supplementation while accounting for the effect of ileoecal resection, a t-test was applied between resected and harvested samples within control and experimental animals. Significance was set at a p-value of ≤0.05 and a fold change of 3, which generated 2,576 differentially regulated entities across two comparisons. Gene set unions and intersections of the control and experimental gene sets were identified through Venn diagrams. From the master list, the gene list specific to animals supplemented with 2'-FL were removed in order to identify genes differentially regulated only by ICR (n=546 entities); this gene set characterizes the adaptive response. Further, the 2'-FL response (n=2,030 entities) was identified by removing the adaptive response signature described above from the master list, leaving only genes regulated by 2'-FL supplementation after ICR which were not found in the non-supplemented adaptive response. Heatmaps were generated using hierarchical clustering with the Pearson's Centered distance metric and the average linkage rule; both entities and samples were clustered. All genomic analyses described above were performed in Strand NGS (Strand Life Sciences, CA). Gene list functional enrichment was initially discovered using ToppFun, a member of the ToppGene Suite. Chen et al. (2009) Nucleic acids research 37: […]-311. No statistical correction was selected. Gene lists were further analyzed using ClueGO, a plugin for Cytoscape designed to decipher functionally grouped gene ontology and pathway annotation networks. Bindea et al. (2009) Bioinformatics 25: 1091-1093. At the time of data analysis, the annotation files were updated from sources to Jan. 1, 2015. “GO Term Fusion” was enabled to manage ontologic term redundancy and network specificity was set to medium. Results were restricted to pathways with p≤0.05 using Benjamini-Hochberg correction and Kappa scoring was set to 0.4. Biocyc annotations were assigned a rectangle, gene ontology biologic processes were assigned an ellipse, and […] annotations were assigned a diamond shape. No meaning was assigned to size or color. […]

[1] = 2′-FL signature response, harvested vs resected small bowel, 8 weeks

## C[C@@H]1O[C@@H](O[C@H]2[C@H](O[C@H]3[C@H](O)[C@@H](O)C(O)O[C@@H]3CO)O[C@H](CO)[C@H](O)[C@@H]2O)[C@@H](O)[C@H](O)[C@@H]1O (stereo partly drawn) [2′-FL, 2′-fucosyllactose]
[1]
  Fgf15 fold change (FC): −64.6
  Fmr1nb fold change (FC): 12.7
  Hemt1 fold change (FC): 15.4
  Irs2 fold change (FC): −43.6
  Map3k12 fold change (FC): 16.2
  Mcpt2 fold change (FC): 13.4
  P2ry4 fold change (FC): −22.2
  Rnf150 fold change (FC): −20.4
  Tmem202 fold change (FC): 18.0
  Ttc28 fold change (FC): −24.2
0610040B10Rik
  Fold Change (Pre- to Post-op): 4.168
1700019L03Rik
  Fold Change (Pre- to Post-op): 4.251
1700020N01Rik
  Fold Change (Pre- to Post-op): 4.446
1810011O10Rik
  Fold Change (Pre- to Post-op): 4.443
1810059H22Rik
  Fold Change (Pre- to Post-op): 4.23
2010308F09Rik
  Fold Change (Pre- to Post-op): 14.34
3300005D01Rik
  Fold Change (Pre- to Post-op): 4.41
9430038I01Rik
  Fold Change (Pre- to Post-op): 6.474
Atp5j2
  Fold Change (Pre- to Post-op): 4.445
Atpif1
  Fold Change (Pre- to Post-op): 4.145
Bambi-ps1
  Fold Change (Pre- to Post-op): 4.353
Casq1
  Fold Change (Pre- to Post-op): 4.38
Cd320
  Fold Change (Pre- to Post-op): 4.215
Coa4
  Fold Change (Pre- to Post-op): 4.375
Cox7a1
  Fold Change (Pre- to Post-op): 6.411
Dgcr6
  Fold Change (Pre- to Post-op): 4.237
Dnah2
  Fold Change (Pre- to Post-op): 4.392
Dynlt1b
  Fold Change (Pre- to Post-op): 4.376
Dynlt1c
  Fold Change (Pre- to Post-op): 4.148
Elof1
  Fold Change (Pre- to Post-op): 4.343
Fam216a
  Fold Change (Pre- to Post-op): 4.147
Gm5485
  Fold Change (Pre- to Post-op): 4.139
Gm6251
  Fold Change (Pre- to Post-op): 4.383
Gm8274
  Fold Change (Pre- to Post-op): 4.331
Gm10433
  Fold Change (Pre- to Post-op): 4.377
Gm10451
  Fold Change (Pre- to Post-op): 4.182
Hemt1
  Fold Change (Pre- to Post-op): 15.36
Hint1
  Fold Change (Pre- to Post-op): 4.482
Hscb
  Fold Change (Pre- to Post-op): 4.227
Hspb2
  Fold Change (Pre- to Post-op): 4.189
Ift20
  Fold Change (Pre- to Post-op): 4.337
Med11
  Fold Change (Pre- to Post-op): 4.235
Mpc2
  Fold Change (Pre- to Post-op): 4.128
Ndufa7
  Fold Change (Pre- to Post-op): 4.362
Ndufaf5
  Fold Change (Pre- to Post-op): 4.338
Ndufb7
  Fold Change (Pre- to Post-op): 4.217
Oaz1
  Fold Change (Pre- to Post-op): 4.347
Ormdl1
  Fold Change (Pre- to Post-op): 4.184
Pstk
  Fold Change (Pre- to Post-op): 4.142
Rabl5
  Fold Change (Pre- to Post-op): 4.448
Rbp1
  Fold Change (Pre- to Post-op): 4.364
Rilpl2
  Fold Change (Pre- to Post-op): 4.235
Rpl34
  Fold Change (Pre- to Post-op): 4.37
Rps15a-ps4
  Fold Change (Pre- to Post-op): 4.372
Rps24
  Fold Change (Pre- to Post-op): 4.131
Rps25
  Fold Change (Pre- to Post-op): 4.218
S100a6
  Fold Change (Pre- to Post-op): 4.237
Sec22a
  Fold Change (Pre- to Post-op): 4.221
Sh2d1b1
  Fold Change (Pre- to Post-op): 4.118
Smim4
  Fold Change (Pre- to Post-op): 4.229
Smim6
  Fold Change (Pre- to Post-op): 4.424
Tm6sf1
  Fold Change (Pre- to Post-op): 4.173
Tnfsf11
  Fold Change (Pre- to Post-op): 4.335
Wfdc17
  Fold Change (Pre- to Post-op): 4.382
Zfp433
  Fold Change (Pre- to Post-op): 4.119
Zswim7
  Fold Change (Pre- to Post-op): 4.475
Gene AI414108
  Fold Change (Pre- to Post-op): −9.671
Gene Agap2
  Fold Change (Pre- to Post-op): −9.801
Gene Ankrd52
  Fold Change (Pre- to Post-op): −10.58
Gene Apba1
  Fold Change (Pre- to Post-op): −18.88
Gene Atp1a2
  Fold Change (Pre- to Post-op): −18.47
Gene Atp1b2
  Fold Change (Pre- to Post-op): −18.71
Gene Bcl9l
  Fold Change (Pre- to Post-op): −10.08
Gene Car3
  Fold Change (Pre- to Post-op): −9.901
Gene Chd7
  Fold Change (Pre- to Post-op): −11.26
Gene D830031N03Rik
  Fold Change (Pre- to Post-op): −15.57
Gene Ebf1
  Fold Change (Pre- to Post-op): −10.39
Gene Fgf15
  Fold Change (Pre- to Post-op): −64.61
Gene Flt1
  Fold Change (Pre- to Post-op): −15.79
Gene Fscn1
  Fold Change (Pre- to Post-op): −10.73
Gene Gltscr1
  Fold Change (Pre- to Post-op): −13.3
Gene Irs2
  Fold Change (Pre- to Post-op): −43.6
Gene Ldoc1l
  Fold Change (Pre- to Post-op): −10.25
Gene Leprel1
  Fold Change (Pre- to Post-op): −9.903
Gene Lyst
  Fold Change (Pre- to Post-op): −9.938
Gene Nav2
  Fold Change (Pre- to Post-op): −12.39
Gene Nfix
  Fold Change (Pre- to Post-op): −16.561
Gene Nos1ap
  Fold Change (Pre- to Post-op): −10.38
Gene P2ry4
  Fold Change (Pre- to Post-op): −22.22
Gene Parvb
  Fold Change (Pre- to Post-op): −9.684
Gene Peg3
  Fold Change (Pre- to Post-op): −15.37
Gene Plin1
  Fold Change (Pre- to Post-op): −16.34
Gene Polr2a
  Fold Change (Pre- to Post-op): −18.45
Gene Ptpru
  Fold Change (Pre- to Post-op): −10.01
Gene Rgs9
  Fold Change (Pre- to Post-op): −9.821
Gene Rnf150
  Fold Change (Pre- to Post-op): −20.41
Gene Scd1
  Fold Change (Pre- to Post-op): −20.28
Gene Sema3g
  Fold Change (Pre- to Post-op): −18.02
Gene Shank3
  Fold Change (Pre- to Post-op): −15.22
Gene Soga1
  Fold Change (Pre- to Post-op): −14.4
Gene Spen
  Fold Change (Pre- to Post-op): −14.44
Gene Tenm3
  Fold Change (Pre- to Post-op): −14.72
Gene Tiam1
  Fold Change (Pre- to Post-op): −15.28
Gene Tmem151a
  Fold Change (Pre- to Post-op): −10.06
Gene Tomm6os
  Fold Change (Pre- to Post-op): −12.41
Gene Trerf1
  Fold Change (Pre- to Post-op): −9.926
Gene Trim56
  Fold Change (Pre- to Post-op): −9.711
Gene Ttc28
  Fold Change (Pre- to Post-op): −24.22
Gene Zbed6
  Fold Change (Pre- to Post-op): −9.794
Gene Zfp609
  Fold Change (Pre- to Post-op): −11.22
Small bowel 56 days after ICR
  number of downregulated entities of the 2′-FL signature response: 1,247
